Reference: patent US20090298903A1, “USE OF TETRAMIC ACID DERIVATIVES FOR INSECT CONTROL” (priority 2006, published 2009)

Assays:
Assay type in all cases: in vivo
Lygus spinolai = assay: Example 1A: field test on tea plants against Lygus spinolai; settings: nymphs on shoots, Imidacloprid (10 WP) 0.005 % a.s., (I-4) (150 OD) 0.01 % a.s.; for Efficacy (% Abbott) 15 d: 15 d after treatment; for Efficacy (% Abbott) 29 d: 29 d after treatment
Protocol: Plots approximately 4 m^2 in size which are planted with tea plants c.v. “Yabukita” are treated, in 3 replications, against Lygus spinolai. Here, the active substance Example (I-4) (150 OD) is tested at the specified application rate against the commercial standard Imidacloprid (10 WP) at the specified application rate. The application is effected with an engine-driven knapsack sprayer. Here, the treatment is carried out with a water application rate of 10 000 l/ha.
The test is evaluated 15 and 29 days after the treatment by determining the destruction of the nymphs on the shoots.

Thrips palmi = assay: Example 7: aubergines against Thrips palmi; settings: for Efficacy (% Abbott) 7 d: 7 d after the second application, 20 leaves, Imidacloprid (100 SL) 0.0151 % a.s., (I-4) (+ 0.2% rapeseed oil methyl ester) 0.0096 % a.s.; for Efficacy (% Abbott) 13 d: 13 d after the second application; for Efficacy (% Abbott) 13 d / Efficacy (% Abbott) 21 d: Imidacloprid 0.0151 % a.s., (I-4) 0.0096 % a.s.; for Efficacy (% Abbott) 21 d: 21 d after the second application
Protocol: Plots approximately 16.5 m^2 in size which are planted with aubergines are treated, in three replications, against Thrips palmi. Here, the active substance Example (I-4) and the commercial standard Imidacloprid (100 SL) is applied at the specified application rates, using a knapsack sprayer which is operated with compressed air. The water application rate is 750 l/ha. In the case of Example (I-4), 0.2% a.s. rapeseed oil methyl ester (500 EW) is added to the spray mixture. Three applications are carried out at intervals of 7 and 14 days, respectively.
The destruction rate in percent is determined on in each case 20 leaves. The following results are obtained 7, 13 and 21 days after the second application: […]

Scirtothrips dorsalis = assay: Example 10: tea plants against Scirtothrips dorsalis; settings: 7 d after treatment, nymphs, Ethiprole (SC10) 0.005, (I-4) (100 OD) 0.01, Imidacloprid (50 WG) 0.005 % a.s.
Protocol: Plots approx. 5 m^2 in size which are planted with tea plants cv. “Yabukita” which are approximately 18 years old are treated, in three replications, against Scirtothrips dorsalis. Here, the active substance Example (I-4) (100 OD) is tested, at the specified application rates, against the commercial standards Ethiprole (SC10 flowable) and Imidacloprid (50 WG). The application is carried out with a sprayer which is operated with pressurized air. The water application rate is 4500 l/ha. The test is evaluated 7 days after the treatment by scoring the destruction rate of the nymphs and the plants.

Empoasca biguttula [1] = assay: Example 12: cotton against Empoasca biguttula; settings: for Efficacy (% H + T) 3 d: 3 d after second treatment, Henderson and Tilton, Imidacloprid (SL 100) 30, (I-4) (240 SC + 0.2% rapeseed oil methyl ester) 24, Buprofezin (WP50) 50 g a.s./ha; for Efficacy (% H + T) 7 d: 7 d after second treatment; for Efficacy (% H + T) 7 d / Efficacy (% H + T) 14 d / Efficacy (% H + T) 21 d: Imidacloprid 30, (I-4) 24, Buprofezin 50 g a.s./ha; for Efficacy (% H + T) 14 d: 14 d after second treatment; for Efficacy (% H + T) 21 d: 21 d after second treatment
Protocol: Plots 10 m^2 in size which are planted with cotton are treated, in three replications, against Empoasca biguttula. The application is carried out with a knapsack sprayer operated with pressurized air. Here, the active substance Example (I-4) (240 SC), in a tank mix with 0.2% a.s. rapeseed oil methyl ester (500 EW), is tested against the commercial standards Imidacloprid (SL 100) and Buprofezin (WP50) at the specified application rates. Two applications are carried out at an interval of 7 days. The water application rate is 750 l/ha.
The test is evaluated 3, 7, 14 and 21 days after the second treatment by counting the live animals. Thereafter, the efficacy is calculated in percent, using the formula of Henderson and Tilton.

Empoasca biguttula [2] = assay: Example 16: aubergines against Empoasca biguttula; settings: for Efficacy (% Abott) 2 d: 2 d after first treatment, nymphs, Imidacloprid (SL 100) 30, (I-4) (150 OD) 50, Profenofos (500 EC) 500 g a.s./ha, two applications, interval 7 days; for Efficacy (% Abott) 6 d: 6 d after first treatment; for Efficacy (% Abott) 6 d / Efficacy (% Abott) 13 d: Imidacloprid 30, (I-4) 50, Profenofos 500 g a.s./ha; for Efficacy (% Abott) 13 d: 13 d after first treatment
Protocol: Plots 10 m^2 in size which are planted with aubergines are treated, in three replications, against Empoasca biguttula. The application is carried out with a knapsack sprayer which is operated with pressurized air. Here, the active substance Example (I-4) (150 OD) is tested against the commercial standards Imidacloprid (SL 100) and Profenofos (500 EC) at the specified application rates. Two applications are carried out at an interval of 7 days. The water application rate is 750 l/ha.
The test is evaluated 2, 6 and 13 days after the first treatment by scoring the destruction rates of the animals (nymphs) on the plants.

Ceratitis capitata = assay: Example 20: peach trees against Ceratitis capitata; settings: animals on fruits
Protocol: Peach trees cv. “Oom Sarel” which are approximately 10 years old are treated, in three replications, against Ceratitis capitata. The application is carried out with a high-pressure sprayer or a knapsack sprayer which is operated with pressurized air. Here, the active substance Example (I-4) (150 OD) and the commercial standard Fenthion (500 EC) are tested at the specified application rates. The water application rate is 2500 l/ha. Three applications are carried out at an interval of 7 and 19 days, respectively.
The test is evaluated 9 and 16 days after treatment 3 by scoring the destruction rate of the animals on the fruits with the aid of the Abbott formula.

[3] = tested on: olive fruit fly (Dacus oleae); assay: Example 22B: laboratory experiment, olives against olive fruit fly; settings: olives treated three days after oviposition; Imidacloprid (200 SL) 0.01 %, (I-4) (100 OD) 0.02 %, Fenthion (500 EC) 0.05 %; untreated 84.4
Protocol: In a laboratory experiment, 40 olives are treated, in four replications, against the olive fruit fly (Dacus oleae) three days after oviposition. Here, the active substance (I-4) (100 OD) and the commercial standards Fenthion (500 EC) and Imidacloprid (200 SL) are tested at the specified application rates.
The test is evaluated 14 days after oviposition by counting the number of feeding tunnels (larval development completed), while the absence of such feeding tunnels indicates the efficacy against the larvae.

Structure (SMILES) | Efficacy (% Abbott) 15 d (Lygus spinolai) | Efficacy (% Abbott) 29 d (Lygus spinolai) | Efficacy (% Abbott) 7 d (Thrips palmi) | Efficacy (% Abbott) 13 d (Thrips palmi) | Efficacy (% Abbott) 21 d (Thrips palmi) | Efficacy (% Abbott) 7 d (Scirtothrips dorsalis) | Efficacy (% H + T) 3 d (Empoasca biguttula [1]) | Efficacy (% H + T) 7 d (Empoasca biguttula [1]) | Efficacy (% H + T) 14 d (Empoasca biguttula [1]) | Efficacy (% H + T) 21 d (Empoasca biguttula [1]) | Efficacy (% Abott) 2 d (Empoasca biguttula [2]) | Efficacy (% Abott) 6 d (Empoasca biguttula [2]) | Efficacy (% Abott) 13 d (Empoasca biguttula [2]) | Efficacy (% Abbott) 16 d after treatment 3 (Ceratitis capitata; Fenthion 1700, (I-4) 100 g a.s./ha) | Efficacy (% Abbott) 9 d after treatment 3 (Ceratitis capitata; Fenthion (500 EC) 1700, (I-4) (150 OD) 100 g a.s./ha) | Number of feeding tunnels (%) 14 days after oviposition [3]
CCOC(=O)OC1=C(c2cc(C)ccc2C)C(=O)N[C@]12CC[C@@H](OC)CC2 [Example (I-4)] | 92.9 % Abbott | 100 % Abbott | 84 % Abbott | 88 % Abbott | 78 % Abbott | 100 % Abbott | 92.1 % H + T | 92.9 % H + T | 84.4 % H + T | 72.6 % H + T | 52.4 % Abott | 56.0 % Abott | 66.7 % Abott | 100 % Abbott | 86.7 % Abbott | 3.1%
O=[N+]([O-])NC1=NCCN1Cc1ccc(Cl)nc1 [Imidacloprid] | 35.7 % Abbott | 48.1 % Abbott | 72 % Abbott | 68 % Abbott | 24 % Abbott | 44.4 % Abbott | 97.3 % H + T | 99.6 % H + T | 95.6 % H + T | 72.5 % H + T | 38.1 % Abott | 71.6 % Abott | 58.7 % Abott |  |  | 11.9%
